Results as given in patent US8076487B2, “Pyridone derivative and herbicide” (Kumiai Chemical Industry Co., Ltd., priority 2006, dated 2011).

Experiments:
Assay type in all cases: in vivo
[1] = test system: velvetleaf (Abutilon theophrasti medicus); test: Test Example 2: herbicidal effect by soil application to upland field; details: soil surface spray, upland field soil, 1,000 g active ingredient per hectare, 21st day after application
Outline: (§1)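 After sowing and covering, the soil received an even aqueous spray of wettable powder at a rate of 1,000 g active ingredient/ha (1,000 L/ha). Ratings of herbicidal effect followed a standard scale 21 days post-treatment, with plants held in a greenhouse.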

[2] = test system: green foxtail (Setaria viridis (L.) P. Beauv.); test: as above; details: soil surface spray, upland field soil, 1,000 g active ingredient per hectare, 21st day after application
Outline: as §1

[3] = test system: barnyardgrass (Echinochloa crus-galli (L.) P. Beauv. var. crus-galli); test: as above; details: soil surface spray, upland field soil, 1,000 g active ingredient per hectare, 21st day after application
Outline: as §1

[4] = test system: slender amaranth (Amaranthus viridis L.); test: as above; details: soil surface spray, upland field soil, 1,000 g active ingredient per hectare, 21st day after application
Outline: as §1

[5] = test system: velvetleaf (Abutilon theophrasti medicus); test: Test Example 3: herbicidal effect by application to upland field (foliage treatment); details: 14th day after application; for herbicidal effect, Velvetleaf: foliage treatment, 1,000 g active ingredient per 1 hectare, greenhouse
Outline: (§2)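 Read-out is a visual herbicidal-effect grade on a standard scale, taken on the 14th day after a single foliar spray. The spray was wettable powder diluted in water, 1,000 g active ingredient/ha at 1,000 L/ha, applied to greenhouse plants two weeks after sowing.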

[6] = test system: green foxtail (Setaria viridis (L.) P. Beauv.); test: as above; details: 14th day after application; for herbicidal effect, Green Foxtail: foliage treatment, 1,000 g active ingredient per 1 hectare, greenhouse
Outline: as §2

[7] = test system: barnyardgrass (Echinochloa crus-galli (L.) P. Beauv. var. crus-galli); test: as above; details: 14th day after application; for herbicidal effect, Barnyardgrass: foliage treatment, 1,000 g active ingredient per 1 hectare, greenhouse
Outline: as §2

[8] = test system: slender amaranth (Amaranthus viridis L.); test: as above; details: 14th day after application; for herbicidal effect, Slender Amaranth: foliage treatment, 1,000 g active ingredient per 1 hectare, greenhouse
Outline: as §2

[9] = test system: heartshape false pickerelweed (Monochoria vaginalis (Burm.f.) C.Presl); test: Test Example 1: herbicidal effect by soil application to paddy field; details: paddy field soil application; active ingredient 1,000 g per 1 hectare; wettable powder added dropwise to water surface the day after sowing; examined on the 21st day after application
Outline: (§3)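 Under greenhouse conditions, seeds sown on puddled paddy soil in 100 cm2 pots under 3 cm of standing water received the test compound; injury was assessed with a standard scoring scheme three weeks (day 21) after treatment.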

[10] = test system: early watergrass (Echinochloa oryzicola Vasing); test: as above; details: paddy field soil application; active ingredient 1,000 g per 1 hectare; wettable powder added dropwise to water surface the day after sowing; examined on the 21st day after application
Outline: as §3

[11] = test system: Japanese bulrush (Scirpus juncoides Roxb.); test: as above; details: paddy field soil application; active ingredient 1,000 g per 1 hectare; wettable powder added dropwise to water surface the day after sowing; examined on the 21st day after application
Outline: as §3

[12] = foliage treatment, plants grown two weeks, 1,000 g active ingredient per hectare

Structure (SMILES) | herbicidal effect (index), Velvetleaf [1] | herbicidal effect (index), Green Foxtail [2] | herbicidal effect (index), Barnyardgrass [3] | herbicidal effect (index), Slender Amaranth [4] | herbicidal effect (index), Velvetleaf [5, 12] | herbicidal effect (index), Green Foxtail [6, 12] | herbicidal effect (index), Barnyardgrass [7, 12] | herbicidal effect (index), Slender Amaranth [8, 12] | herbicidal effect, Monochoria vaginalis (Burm. f.) C. Presl [9] | herbicidal effect, Echinochloa oryzicola Vasing [10] | herbicidal effect, Scirpus juncoides Roxb. [11] | herbicidal effect, Velvetleaf [5] | herbicidal effect, Green Foxtail [6] | herbicidal effect, Barnyardgrass [7] | herbicidal effect, Slender Amaranth [8]
CS(=O)(=O)CCn1c(C(F)(F)F)ccc(C(=O)C2=C(O)CCCC2=O)c1=O [I-67] | 5 (90% or more of herbicidal effect and crop phytotoxicity) | 5 (90% or more of herbicidal effect and crop phytotoxicity) | 5 (90% or more of herbicidal effect and crop phytotoxicity) | 5 (90% or more of herbicidal effect and crop phytotoxicity) | 5 (90% or more of herbicidal effect and crop phytotoxicity) | 5 (90% or more of herbicidal effect and crop phytotoxicity) | 5 (90% or more of herbicidal effect and crop phytotoxicity) | 5 (90% or more of herbicidal effect and crop phytotoxicity) | 5 (90% or more of herbicidal effect and crop phytotoxicity) | 5 (90% or more of herbicidal effect and crop phytotoxicity) | 5 (90% or more of herbicidal effect and crop phytotoxicity) | – | – | – | –
Cn1ncc(C(=O)c2ccc(C(F)(F)F)n(C)c2=O)c1OC(=O)OCc1ccccc1 [IV-199] | 5 (90% or more of herbicidal effect and crop phytotoxicity) | 4 (70 to less than 90% of herbicidal effect and crop phytotoxicity) | 5 (90% or more of herbicidal effect and crop phytotoxicity) | 5 (90% or more of herbicidal effect and crop phytotoxicity) | – | – | – | – | 5 (90% or more of herbicidal effect and crop phytotoxicity) | 5 (90% or more of herbicidal effect and crop phytotoxicity) | 5 (90% or more of herbicidal effect and crop phytotoxicity) | 5 (90% or more of herbicidal effect and crop phytotoxicity) | 3 (50 to less than 70% of herbicidal effect and crop phytotoxicity) | 4 (70 to less than 90% of herbicidal effect and crop phytotoxicity) | 5 (90% or more of herbicidal effect and crop phytotoxicity)
Cc1cc(Cn2c(C(F)(F)F)ccc(C(=O)C3=C(O)CCCC3=O)c2=O)on1 [I-128] | 5 (90% or more of herbicidal effect and crop phytotoxicity) | 4 (70 to less than 90% of herbicidal effect and crop phytotoxicity) | 5 (90% or more of herbicidal effect and crop phytotoxicity) | 5 (90% or more of herbicidal effect and crop phytotoxicity) | – | – | – | – | 5 (90% or more of herbicidal effect and crop phytotoxicity) | 5 (90% or more of herbicidal effect and crop phytotoxicity) | 5 (90% or more of herbicidal effect and crop phytotoxicity) | 5 (90% or more of herbicidal effect and crop phytotoxicity) | 4 (70 to less than 90% of herbicidal effect and crop phytotoxicity) | 5 (90% or more of herbicidal effect and crop phytotoxicity) | 5 (90% or more of herbicidal effect and crop phytotoxicity)
